Measured values taken from article PMC5454942, “The Potential of Triterpenoids from Loquat Leaves (Eriobotrya japonica) for Prevention and Treatment of Skin Disorder” (International Journal of Molecular Sciences, 2017).
Converted amounts (≈) assume the structure as drawn. “And” between values parts separate entries of the source, which are not always exact repeats. Equal values may be shown once. Read-outs that look alike come from different tables or passages of the source.

Columns and labels:
RBL-2H3 cells [1] = test: β-hexosaminidase release from IgE-stimulated RBL-2H3 mast cells; assay type: cell-based, rat; conditions: 25 μg/mL; for inhibition at 25 µg/mL: Rattus norvegicus, RBL-2H3, read-out: Inhibition Rate (β-hexosaminidase release)
Protocol: (§1) The anti-allergy assay was based mostly on the methods described by Zhu et al. and Yun et al. with slight modification. Rat basophilic leukemia (RBL-2H3) cells were obtained from the Riken Bio-resource Center Cell Bank (Tsukuba, Japan). RBL-2H3 cells were incubated in EMEM medium containing 10% FBS and 1% antibiotics–antimycotics at 37 °C. The cells were seeded on a 96-well plate (2 × 10^5 cells/well). After 24 h of incubation, the medium was supplemented with 0.5 μg/mL anti-DNP (dinitrophenol) mouse immunoglobulin E (IgE) (Sigma-Aldrich). After an additional 24 h of incubation, the medium was replaced with 100 μL of Tyrode buffer. The sample dissolved in DMSO (<0.5% per well) was added, and the cell plate was incubated again for 30 min, then replaced with 100 μL of tyrode buffer containing 50 μg/mL DNP-bovine serum albumin (BSA) (Invitrogen, Carlsbad, CA, USA). After 1 h of incubation, 50 μL of the supernatant was collected from each well and mixed with 50 μL of substrate solution (p-nitrophenyl-N-acetyl-β-glucosaminide, 2 mM; Sigma-Aldrich) in a new 96-well plate. The mixture was incubated at room temperature on a shaker for 3 h. Finally, 100 μL of stop solution was added, and the absorbance was read at 405 nm. A parallel MTT experiment was performed to measure the cell viability. The MTT experiment was done exactly as described.

Propionibacterium acnes = test: Anti-bacterial assay (growth inhibition, MIC/MBC by broth microdilution); assay type: cell-based; conditions: for inhibition at 100 µg/mL: read-out: Inhibition Rate (P. acnes growth); for activity against P. acnes (in words): at their maximum solubility
Protocol: The antibacterial assay was based mostly on the methods described by Tanaka et al. with slight modification. Propionibacterium acne (NBRC 107605) was used for the antibacterial assay. A single colony of the test strain was taken and 5 mL of Gifu anaerobic medium (GAM) broth (Nissui, Tokyo) was added to it. This culture was incubated at 37 °C for 30 h. It was then added to the bacterial suspension to prepare a bacterial concentration at 10^5 CFU/mL. The bacterial solution was used for the subsequent antibacterial assay. Each compound was dissolved in DMSO, and benzalkonium chloride (Wako) was used as a positive control. The plate was incubated at 37 °C for 30 h. Finally, bacterial growth was measured by a microplate reader at 630 nm. The MIC and MBC were evaluated by the standard broth microdilution method.

[2] = Cell viability of RBL-2H3 cells (parallel MTT); assay type: cell-based, rat; conditions: rat; 25 μg/ml, RBL-2H3 cells; read-out: Cell viability
Protocol: as §1

B16 melanoma cells [3] = test: Cell viability of B16 melanoma cells (MTT); conditions: for Inhibition rate (100% − cell viability): B16 cells
Protocol: (§2) This assay was performed as described by Arung et al.. The mouse melanoma cell line B16 was obtained from the Riken Bioresource Center Cell Bank (Tsukuba, Japan). The B16 melanoma cells were maintained in Eagle’s Minimal Essential Medium (EMEM, Nissui Chemical, Tokyo) supplemented with 10% (v/v) fetal bovine serum (FBS; Gibco, Carlsbad, CA, USA) and 0.09 mg/mL theophylline (Sigma-Aldrich, St. Louis, MO, USA). […] After 24 h, test samples were dissolved in DMSO (<0.2% per well) and sample solution were added to each well. Arbutin (Tokyo Kasei Kogyo, Tokyo) was used as a positive control. The cells were incubated for an additional 48 h, and then the medium was replaced with fresh medium containing each sample again. After 24 h, the melanin content and the cell viability were measured using a microplate reader (BioTek-ELX800, BioTek Instruments, Winooski, VT, USA) at 405 nm and 570 nm, respectively. Cell viability was measured using the MTT (3-(4,5-dimethylthiazol-2-yl)-2,5-diphenyltetrazolium bromide) method.

[4] = Cell viability of B16 melanoma cells (MTT); conditions: mouse
Protocol: as §2

B16 melanoma cells [5] = test: Anti-melanogenesis assay (melanin content); assay type: cell-based, mouse
Protocol: as §2

mushroom tyrosinase = test: Tyrosinase inhibition assay; assay type: biochemical; conditions: for inhibitory effect on tyrosinase (in words): L-DOPA as substrate; for inhibitory activity on tyrosinase (in words): L-tyrosine as substrate, relatively high concentrations
Protocol: Tyrosinase inhibition activity was evaluated by using L-tyrosine and L-DOPA as substrates, as described. Briefly, 333 μL of 2.5 mM L-tyrosine or L-DOPA solution (Sigma-Aldrich) was mixed with 600 μL of 0.1 M phosphate buffer (pH 6.8) and incubated at 25 °C. Then, 33 μL of the sample solution (dissolved in DMSO in various concentrations) and 33 μL of 1380 units/mL mushroom tyrosinase (Sigma-Aldrich) were added to the mixture. The optical density was measured at 475 nm up to the appropriate time. Kojic acid (Sigma-Aldrich) was used as the positive control; the final concentration is 3.3 μg/mL.

RBL-2H3 cells [6] = test: Cell viability of RBL-2H3 cells (parallel MTT); assay type: cell-based, rat; conditions: 25 μg/ml, RBL-2H3 cells
Protocol: as §1

NHDF cells = test: Skin type I collagen synthesis promoting assay (ELISA, with MTT); assay type: cell-based, human; conditions: fold of control
Protocol: The assay for measuring the promotion of skin collagen synthesis was described by Kishikawa et al.. Adult NHDF cells (Lonza, Tokyo) were routinely maintained in 10% FBS and 1% antibiotic-antimycotic (Invitrogen) in Dulbecco’s modified Eagle’s medium (DMEM, Wako). After growing to confluence, cells at a density of 5 × 10^3 cells/well were seeded on 96-well plates for 24 h before the treatment. The medium was replaced with a mixture of 1 μL of sample solution (DMSO < 0.5% per well) and 99 μL of DMEM supplemented with 0.5% FBS. After 72 h of cultivation, the amount of collagen in the medium was measured using a human type I collagen enzyme-linked immunosorbent assay (ELISA) kit (ACEL, Kanagawa, Japan). The amount of collagen production was calculated using a standard curve prepared by measurement by the same ELISA. The cells remaining in the 96-well plate were subjected to an MTT assay. Ascorbic acid (100 μM, Wako) was used as a positive control.

[7] = Cutibacterium acnes, concentration 100 μg/mL
[8] = Mus musculus, 1 μg/ml, B16 cells, read-out: Inhibition rate (100% − melanin synthesis)
[9] = Mus musculus, 2.5 μg/ml, B16 cells, read-out: Inhibition rate (100% − melanin synthesis)
[10] = Mus musculus, 5 μg/ml, B16 cells, read-out: Inhibition rate (100% − melanin synthesis)
[11] = Mus musculus, 10 μg/ml, B16 cells, read-out: Inhibition rate (100% − melanin synthesis)
[12] = Mus musculus, B16 melanoma cells, read-out: IC50 (melanin synthesis)
[13] = Mus musculus, B16 melanoma cells, read-out: IC50 melanin

| Structure (SMILES) | inhibition at 25 µg/mL (RBL-2H3 cells [1]) | inhibition at 100 µg/mL (Propionibacterium acnes; [7]) | activity against P. acnes (in words) (Propionibacterium acnes) | viability at 25 μg/ml [2] | Inhibition rate (100% − cell viability) (B16 melanoma cells [3]; 1 μg/ml) | Inhibition rate (100% − cell viability) (B16 melanoma cells [3]; 2.5 μg/ml) | Inhibition rate (100% − cell viability) (B16 melanoma cells [3]; 5 μg/ml) | Inhibition rate (100% − cell viability) (B16 melanoma cells [3]; 10 μg/ml) | Inhibition rate (100% − cell viability) (B16 melanoma cells [3]; 20 μg/ml) | S.I (selectivity index, CC50 value/IC50 value) (B16 melanoma cells [5]; B16 melanoma cells) | inhibition at 1 µg/mL (B16 melanoma cells [5]; [8]) | inhibition at 2.5 µg/mL (B16 melanoma cells [5]; [9]) | inhibition at 5 µg/mL (B16 melanoma cells [5]; [10]) | inhibition at 10 µg/mL (B16 melanoma cells [5]; [11]) | IC50 (B16 melanoma cells [5]; [12]) | IC50 (B16 melanoma cells [5]; [13]) | inhibitory effect on tyrosinase (in words) (mushroom tyrosinase) | inhibitory activity on tyrosinase (in words) (mushroom tyrosinase) | further results |
| --- | --- | --- | --- | --- | --- | --- | --- | --- | --- | --- | --- | --- | --- | --- | --- | --- | --- | --- | --- |
| CC1(C)CC[C@]2(C(=O)O)CC[C@]3(C)C(=CC[C@@H]4[C@@]5(C)CC[C@H](O)C(C)(C)[C@@H]5CC[C@]43C)[C@@H]2C1 [Compound 2, Oleanolic acid] | 5.8 ± 6.7% | 100.4 ± 0.8% | active | 102 ± 6.2% | 4.9 ± 4.6% | 7.8 ± 4.1% | 17.0 ± 6.2% | 27.4 ± 7.0% | 54.9 ± 2.3% | 1.5 | 9.5 ± 4.6% | 27.8 ± 4.8% | 33.5 ± 6% | 45.9 ± 1.5% | 26.8 µM | 12.2 µg/mL | no inhibitory effect | moderate inhibitory activity | MBC (Propionibacterium acnes; Cutibacterium acnes, P. acnes, broth microdilution, read-out: MBC): 200 µg/mL (≈ 438 µM); MIC (Propionibacterium acnes; Cutibacterium acnes, P. acnes, broth microdilution, read-out: MIC): 100 µg/mL (≈ 219 µM); CC50 at 72 h ([4]; B16 melanoma cells): 18.2 µg/mL and 39.9 µM; inhibition at 20 µg/mL (B16 melanoma cells [5]; Mus musculus, 20 μg/ml, B16 cells, read-out: Inhibition rate (100% − melanin synthesis)): 58.6 ± 2.3% |
| COC(=O)[C@]12CC[C@@H](C)[C@H](C)[C@H]1C1=CC[C@@H]3[C@@]4(C)C[C@@H](O)[C@H](O)C(C)(C)[C@@H]4CC[C@@]3(C)[C@]1(C)CC2 [Compound 6, methyl corosolate] | – | – | active | – | 4.5 ± 13.7% | 10.5 ± 10.9% | 15.4 ± 5.1% | 59.4 ± 7.0% | – | – | – | – | – | – | – | – | – | – | Inhibition Rate (β-hexosaminidase release) (RBL-2H3 cells [1]): 2.4 ± 14.1%; Inhibition Rate (P. acnes growth) (Propionibacterium acnes; concentration 100 μg/mL): 77.9 ± 1.6%; Cell viability (RBL-2H3 cells [6]): 97.6 ± 14.1%; CP/CV value (collagen production %/cell viability %) (NHDF cells; 5 μg/mL): 2.4; CP/CV value (collagen production %/cell viability %) (NHDF cells; 10 μg/mL): 3.4 and 3.6; CC50 cell viability (B16 melanoma cells [3]; B16 melanoma cells, MTT): 9.1 µg/mL (≈ 18.7 µM); CC50 (B16 melanoma cells [3]; read-out: CC50 (cell viability), B16 melanoma cells, MTT): 18.7 µM; Inhibition rate (100% − melanin synthesis) (B16 melanoma cells [5]; 1 μg/ml, B16 cells): 0.0 ± 1.9%; Inhibition rate (100% − melanin synthesis) (B16 melanoma cells [5]; 2.5 μg/ml, B16 cells): 2.8 ± 4.5%; Inhibition rate (100% − melanin synthesis) (B16 melanoma cells [5]; 5 μg/ml, B16 cells): 32.7 ± 1.5%; Inhibition rate (100% − melanin synthesis) (B16 melanoma cells [5]; 10 μg/ml, B16 cells): 63.5 ± 2.7%; IC50 melanin (B16 melanoma cells [5]; B16 melanoma cells): 7.8 µg/mL (≈ 16 µM); IC50 (B16 melanoma cells [5]; B16 melanoma cells, read-out: IC50 (melanin synthesis)): 16.1 µM |
| C=C(C)[C@@H]1CC[C@]2(C(=O)O)CC[C@]3(C)[C@H](CC[C@@H]4[C@@]5(C)CC[C@H](O)C(C)(C)[C@@H]5CC[C@]43C)[C@@H]12 [Compound 4, Betulinic acid] | 29.4 ± 8.1% | < 0% | – | 97.9 ± 10.6% | 1.2 ± 12.0% | 20.8 ± 5.2% | 35.9 ± 5.2% | 58.4 ± 14.1% | 68.1 ± 11.4% | 1.4 | 35.4 ± 0.5% | 44.8 ± 1.4% | 49.7 ± 3.1% | 54 ± 3.3% | 11.8 µM | 5.3 µg/mL | no inhibitory effect | moderate inhibitory activity | CC50 at 72 h [4]: 7.6 µg/mL and 16.7 µM; inhibition at 0.5 µg/mL (B16 melanoma cells [5]; Mus musculus, 0.5 μg/ml, B16 cells, read-out: Inhibition rate (100% − melanin synthesis)): 23.2 ± 1.4% |
